Measurements as given in patent publication US9546164B2 (GENENTECH, INC., priority 2013, dated 2017).
Where a name gives a salt, the structure may show the parent alone.

Target: hNav1.7 (Homo sapiens (Human), UniProt Q15858)
Assay: Tritiated sulfonamide competitive binding to membranes from cells expressing hNav1.7 and the β1 subunit;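 further: Filter-bound radioactivity counted by liquid scintillation, nonspecific binding defined with excess unlabelled ligand, IC50 fitted to percent inhibition of specific binding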
Conditions: read-out: Ligand Binding Assay; 100 pM [3H]compound, membranes with hNav1.7 and β1 subunit, 18 h, room temperature

hNav1.7, sequence (Q15858 other isoform, or with tags, fused parts or gaps): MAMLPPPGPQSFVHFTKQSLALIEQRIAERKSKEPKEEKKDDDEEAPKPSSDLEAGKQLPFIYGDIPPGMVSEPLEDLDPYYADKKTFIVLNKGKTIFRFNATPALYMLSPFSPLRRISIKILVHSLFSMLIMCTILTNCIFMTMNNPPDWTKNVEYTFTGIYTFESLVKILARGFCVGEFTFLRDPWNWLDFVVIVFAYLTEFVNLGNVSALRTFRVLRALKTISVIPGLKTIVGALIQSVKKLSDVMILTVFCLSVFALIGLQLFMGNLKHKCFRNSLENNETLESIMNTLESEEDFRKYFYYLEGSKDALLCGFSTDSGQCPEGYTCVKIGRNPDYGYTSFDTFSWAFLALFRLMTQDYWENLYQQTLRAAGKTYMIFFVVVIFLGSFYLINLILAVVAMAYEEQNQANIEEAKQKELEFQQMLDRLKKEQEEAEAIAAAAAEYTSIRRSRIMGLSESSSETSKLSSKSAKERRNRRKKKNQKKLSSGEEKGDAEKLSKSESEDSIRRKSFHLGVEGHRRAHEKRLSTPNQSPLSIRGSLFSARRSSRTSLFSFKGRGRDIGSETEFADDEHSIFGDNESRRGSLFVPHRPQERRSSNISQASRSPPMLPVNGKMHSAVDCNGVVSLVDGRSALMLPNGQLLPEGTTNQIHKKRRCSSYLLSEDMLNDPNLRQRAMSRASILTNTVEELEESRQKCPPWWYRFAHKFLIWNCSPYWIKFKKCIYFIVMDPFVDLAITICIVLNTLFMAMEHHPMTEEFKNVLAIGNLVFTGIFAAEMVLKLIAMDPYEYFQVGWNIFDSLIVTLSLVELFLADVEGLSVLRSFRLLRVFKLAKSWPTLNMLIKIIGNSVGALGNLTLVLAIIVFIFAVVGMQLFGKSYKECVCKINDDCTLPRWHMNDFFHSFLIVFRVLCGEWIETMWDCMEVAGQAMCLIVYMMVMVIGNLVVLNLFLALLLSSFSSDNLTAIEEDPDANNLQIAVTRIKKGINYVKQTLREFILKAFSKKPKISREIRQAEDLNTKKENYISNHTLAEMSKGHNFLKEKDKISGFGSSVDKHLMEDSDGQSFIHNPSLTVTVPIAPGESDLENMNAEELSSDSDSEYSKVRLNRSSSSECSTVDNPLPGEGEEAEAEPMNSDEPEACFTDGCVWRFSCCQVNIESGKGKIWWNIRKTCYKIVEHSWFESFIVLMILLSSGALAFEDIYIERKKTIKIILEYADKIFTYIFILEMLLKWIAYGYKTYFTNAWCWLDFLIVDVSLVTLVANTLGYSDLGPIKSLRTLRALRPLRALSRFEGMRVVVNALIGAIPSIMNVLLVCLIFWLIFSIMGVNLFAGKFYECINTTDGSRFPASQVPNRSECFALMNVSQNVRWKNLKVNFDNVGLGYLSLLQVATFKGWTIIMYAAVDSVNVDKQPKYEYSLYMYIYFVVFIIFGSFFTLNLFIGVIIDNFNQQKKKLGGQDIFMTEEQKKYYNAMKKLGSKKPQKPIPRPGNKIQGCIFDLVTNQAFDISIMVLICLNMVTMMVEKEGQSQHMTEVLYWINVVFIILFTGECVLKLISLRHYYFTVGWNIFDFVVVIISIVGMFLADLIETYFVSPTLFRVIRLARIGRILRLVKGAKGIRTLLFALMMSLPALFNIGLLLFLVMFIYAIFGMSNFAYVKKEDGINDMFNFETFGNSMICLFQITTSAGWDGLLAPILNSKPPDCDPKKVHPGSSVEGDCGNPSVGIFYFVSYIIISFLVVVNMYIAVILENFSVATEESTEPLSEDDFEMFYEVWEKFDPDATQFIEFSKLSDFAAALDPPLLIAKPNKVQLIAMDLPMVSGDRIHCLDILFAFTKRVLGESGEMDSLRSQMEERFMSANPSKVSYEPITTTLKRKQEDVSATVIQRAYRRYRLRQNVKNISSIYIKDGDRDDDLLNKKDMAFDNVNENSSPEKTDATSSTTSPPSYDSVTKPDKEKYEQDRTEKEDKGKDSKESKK
hNav1.7, sequence (Q07699 19-218 partner): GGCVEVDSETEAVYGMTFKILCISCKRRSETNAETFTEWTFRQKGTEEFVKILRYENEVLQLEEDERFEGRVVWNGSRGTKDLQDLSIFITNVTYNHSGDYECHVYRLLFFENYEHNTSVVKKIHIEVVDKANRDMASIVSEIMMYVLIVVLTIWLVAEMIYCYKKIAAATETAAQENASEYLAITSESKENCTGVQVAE

| SMILES | IC50 [µM] |
| --- | --- |
| O=C(NS(=O)(=O)C1CC1)c1cc(C2CC2)c(OCC2CCN(S(=O)(=O)c3cc(Cl)c(Br)cc3F)CC2)cc1F [Example 367, 4-((1-((4-bromo-5-chloro-2-fluorophenyl)sulfonyl)piperidin-4-yl)methoxy)-5-cyclopropyl-N-(cyclopropylsulfonyl)-2-fluorobenzamide] | 0.0083 |
| CS(=O)(=O)NC(=O)c1cc(C2CC2)c(OCC2CCN(S(=O)(=O)c3ccc(Br)c(F)c3)CC2)cc1F [Example 368, 4-((1-((4-bromo-3-fluorophenyl)sulfonyl)piperidin-4-yl)methoxy)-5-cyclopropyl-2-fluoro-N-(methylsulfonyl)benzamide] | 0.0251 |
| O=C(NS(=O)(=O)C1CC1)c1cc(C2CC2)c(OCC2CCN(S(=O)(=O)c3ccc(Br)c(F)c3)CC2)cc1F [Example 369, 4-((1-((4-bromo-3-fluorophenyl)sulfonyl)piperidin-4-yl)methoxy)-5-cyclopropyl-N-(cyclopropylsulfonyl)-2-fluorobenzamide] | 0.0145 |
| CS(=O)(=O)NC(=O)c1cc(C2CC2)c(OCC2CCN(S(=O)(=O)c3ccccc3C(F)(F)F)CC2)cc1F [Example 370, 5-cyclopropyl-2-fluoro-N-(methylsulfonyl)-4-((1-((2-(trifluoromethyl)phenyl)sulfonyl)piperidin-4-yl)methoxy)benzamide] | 0.0308 |
| O=C(NS(=O)(=O)C1CC1)c1cc(C2CC2)c(OCC2CCN(S(=O)(=O)c3ccccc3C(F)(F)F)CC2)cc1F [Example 371, 5-cyclopropyl-N-(cyclopropylsulfonyl)-2-fluoro-4-((1-((2-(trifluoromethyl)phenyl)sulfonyl)piperidin-4-yl)methoxy)benzamide] | 0.0203 |
| CS(=O)(=O)NC(=O)c1cc(C2CC2)c(OCC2CCN(S(=O)(=O)c3ccc(C(F)(F)F)cc3)CC2)cc1F [Example 372, 5-cyclopropyl-2-fluoro-N-(methylsulfonyl)-4-((1-((4-(trifluoromethyl)phenyl)sulfonyl)piperidin-4-yl)methoxy)benzamide] | 0.0492 |
| O=C(NS(=O)(=O)C1CC1)c1cc(C2CC2)c(OCC2CCN(S(=O)(=O)c3ccc(C(F)(F)F)cc3)CC2)cc1F [Example 373, 5-cyclopropyl-N-(cyclopropylsulfonyl)-2-fluoro-4-((1-((4-(trifluoromethyl)phenyl)sulfonyl)piperidin-4-yl)methoxy)benzamide] | 0.0197 |
| CS(=O)(=O)NC(=O)c1cc(C2CC2)c(OCC2CCN(S(=O)(=O)c3cccc(C(F)(F)F)c3)CC2)cc1F [Example 374, 5-cyclopropyl-2-fluoro-N-(methylsulfonyl)-4-((1-((3-(trifluoromethyl)phenyl)sulfonyl)piperidin-4-yl)methoxy)benzamide] | 0.0231 |
| O=C(NS(=O)(=O)C1CC1)c1cc(C2CC2)c(OCC2CCN(S(=O)(=O)c3cccc(C(F)(F)F)c3)CC2)cc1F [Example 375, 5-cyclopropyl-N-(cyclopropylsulfonyl)-2-fluoro-4-((1-((3-(trifluoromethyl)phenyl)sulfonyl)piperidin-4-yl)methoxy)benzamide] | 0.0146 |
| CS(=O)(=O)NC(=O)c1cc(C2CC2)c(OCC2CCN(S(=O)(=O)C3CCOCC3)CC2)cc1F [Example 376, 5-cyclopropyl-2-fluoro-N-(methylsulfonyl)-4-((1-((tetrahydro-2H-pyran-4-yl)sulfonyl)piperidin-4-yl)methoxy)benzamide] | 2.45 |
| O=C(NS(=O)(=O)C1CC1)c1cc(C2CC2)c(OCC2CCN(S(=O)(=O)C3CCOCC3)CC2)cc1F [Example 377, 5-cyclopropyl-N-(cyclopropylsulfonyl)-2-fluoro-4-((1-((tetrahydro-2H-pyran-4-yl)sulfonyl)piperidin-4-yl)methoxy)benzamide] | 1.26 |
| CS(=O)(=O)NC(=O)c1cc(C2CC2)c(OCC2CCN(S(=O)(=O)c3ccc(OC(F)(F)F)cc3)CC2)cc1F [Example 378, 5-cyclopropyl-2-fluoro-N-(methylsulfonyl)-4-((1-((4-(trifluoromethoxy)phenyl)sulfonyl)piperidin-4-yl)methoxy)benzamide] | 0.0459 |
| O=C(NS(=O)(=O)C1CC1)c1cc(C2CC2)c(OCC2CCN(S(=O)(=O)c3ccc(OC(F)(F)F)cc3)CC2)cc1F [Example 379, 5-cyclopropyl-N-(cyclopropylsulfonyl)-2-fluoro-4-((1-((4-(trifluoromethoxy)phenyl)sulfonyl)piperidin-4-yl)methoxy)benzamide] | 0.0172 |
| O=C(NS(=O)(=O)C1CC1)c1cc(C2CC2)c(OCC2CCN(S(=O)(=O)c3cc(F)c(F)c(F)c3)CC2)cc1F [Example 381, 5-cyclopropyl-N-(cyclopropylsulfonyl)-2-fluoro-4-((1-((3,4,5-trifluorophenyl)sulfonyl)piperidin-4-yl)methoxy)benzamide] | 0.0148 |
| CS(=O)(=O)NC(=O)c1cc(C2CC2)c(OCC2CCN(S(=O)(=O)c3ccc(F)c(Cl)c3)CC2)cc1F [Example 382, 4-((1-((3-chloro-4-fluorophenyl)sulfonyl)piperidin-4-yl)methoxy)-5-cyclopropyl-2-fluoro-N-(methylsulfonyl)benzamide] | 0.0407 |
| O=C(NS(=O)(=O)C1CC1)c1cc(C2CC2)c(OCC2CCN(S(=O)(=O)c3ccc(F)c(Cl)c3)CC2)cc1F [Example 383, 4-((1-((3-chloro-4-fluorophenyl)sulfonyl)piperidin-4-yl)methoxy)-5-cyclopropyl-N-(cyclopropylsulfonyl)-2-fluorobenzamide] | 0.0148 |
| CS(=O)(=O)NC(=O)c1cc(C2CC2)c(OCC2CCN(S(=O)(=O)c3ccc(C(F)(F)F)cc3Cl)CC2)cc1F [Example 384, 4-((1-((2-chloro-4-(trifluoromethyl)phenyl)sulfonyl)piperidin-4-yl)methoxy)-5-cyclopropyl-2-fluoro-N-(methylsulfonyl)benzamide] | 0.0163 |
| O=C(NS(=O)(=O)C1CC1)c1cc(C2CC2)c(OCC2CCN(S(=O)(=O)c3ccc(C(F)(F)F)cc3Cl)CC2)cc1F [Example 385, 4-((1-((2-chloro-4-(trifluoromethyl)phenyl)sulfonyl)piperidin-4-yl)methoxy)-5-cyclopropyl-N-(cyclopropylsulfonyl)-2-fluorobenzamide] | 0.01 |
| Cc1cc(F)ccc1S(=O)(=O)N1CCC(COc2cc(F)c(C(=O)NS(C)(=O)=O)cc2C2CC2)CC1 [Example 386, 5-cyclopropyl-2-fluoro-4-((1-((4-fluoro-2-methylphenyl)sulfonyl)piperidin-4-yl)methoxy)-N-(methylsulfonyl)benzamide] | 0.0521 |
| Cc1cc(F)ccc1S(=O)(=O)N1CCC(COc2cc(F)c(C(=O)NS(=O)(=O)C3CC3)cc2C2CC2)CC1 [Example 387, 5-cyclopropyl-N-(cyclopropylsulfonyl)-2-fluoro-4-((1-((4-fluoro-2-methylphenyl)sulfonyl)piperidin-4-yl)methoxy)benzamide] | 0.0133 |
| CS(=O)(=O)NC(=O)c1cc(C2CC2)c(OCC2CCN(S(=O)(=O)c3ccc4ccccc4c3)CC2)cc1F [Example 388, 5-cyclopropyl-2-fluoro-N-(methylsulfonyl)-4-((1-(naphthalen-2-ylsulfonyl)piperidin-4-yl)methoxy)benzamide] | 0.0163 |
| CS(=O)(=O)NC(=O)c1cc(C2CC2)c(OCC2CCN(S(=O)(=O)c3ccc(Br)c(Cl)c3)CC2)cc1F [Example 390, 4-((1-((4-bromo-3-chlorophenyl)sulfonyl)piperidin-4-yl)methoxy)-5-cyclopropyl-2-fluoro-N-(methylsulfonyl)benzamide] | 0.0185 |
| O=C(NS(=O)(=O)C1CC1)c1cc(C2CC2)c(OCC2CCN(S(=O)(=O)c3ccc(Br)c(Cl)c3)CC2)cc1F [Example 391, 4-((1-((4-bromo-3-chlorophenyl)sulfonyl)piperidin-4-yl)methoxy)-5-cyclopropyl-N-(cyclopropylsulfonyl)-2-fluorobenzamide] | 0.0101 |
| O=C(NS(=O)(=O)C1CC1)c1cc(C2CC2)c(OCC2CCN(S(=O)(=O)C3COC3)CC2)cc1F [Example 393, 5-cyclopropyl-N-(cyclopropylsulfonyl)-2-fluoro-4-((1-(oxetan-3-ylsulfonyl)piperidin-4-yl)methoxy)benzamide] | 1.38 |
| CS(=O)(=O)N1CCC(COc2cc(F)c(C(=O)NS(=O)(=O)C3CC3)cc2C2CC2)CC1 [Example 394, 5-cyclopropyl-N-(cyclopropylsulfonyl)-2-fluoro-4-((1-(methylsulfonyl)piperidin-4-yl)methoxy)benzamide] | 6.01 |
| CS(=O)(=O)NC(=O)c1cc(C2CC2)c(OCC2CCN(S(C)(=O)=O)CC2)cc1F [Example 395, 5-cyclopropyl-2-fluoro-N-(methylsulfonyl)-4-((1-(methylsulfonyl)piperidin-4-yl)methoxy)benzamide] | > 10 |
| O=C(NS(=O)(=O)C1CC1)c1cc(C2CC2)c(OC[C@@H]2C[C@H]3CC[C@@H](C2)N3Cc2cc(C(F)(F)F)cc(Cl)c2F)cc1F [Example 396, 4-(((1R,3S,5S)-8-(3-chloro-2-fluoro-5-(trifluoromethyl)benzyl)-8-azabicyclo-[3.2.1]octan-3-yl)methoxy)-5-cyclopropyl-N-(cyclopropylsulfonyl)-2-fluorobenzamide, trifluoroacetic acid salt] | 0.0148 |
| O=C(NS(=O)(=O)C1CC1)c1cc(C2CC2)c(OC[C@@H]2C[C@H]3CC[C@@H](C2)N3Cc2cc(C(F)(F)F)ccc2Cl)cc1F [Example 397, 4-(((1R,3S,5S)-8-(2-chloro-5-(trifluoromethyl)benzyl)-8-azabicyclo[3.2.1]octan-3-yl)methoxy)-5-cyclopropyl-N-(cyclopropylsulfonyl)-2-fluorobenzamide, trifluoroacetic acid salt] | 0.0057 |
| CS(=O)(=O)NC(=O)c1cc(C2CC2)c(OC[C@@H]2C[C@H]3CC[C@@H](C2)N3Cc2cc(C(F)(F)F)cc(Cl)c2F)cc1F [Example 398, 4-(((1R,3S,5S)-8-(3-chloro-2-fluoro-5-(trifluoromethyl)benzyl)-8-azabicyclo[3.2.1]octan-3-yl)methoxy)-5-cyclopropyl-2-fluoro-N-(methylsulfonyl)benzamide, trifluoroacetic acid salt] | 0.0051 |
